In the SangsterLogP compilation one finds logD and logP data, which are given here for 75 molecules.

Broadly, the logD is lipophilicity at a set pH, counting ionised and neutral species. High values mean higher lipophilicity, low ones lower lipophilicity. For orientation: logP means the decadic logarithm of the partition coefficient of the neutral form, usually between octanol and water. High values mean a more lipophilic compound, low ones a more hydrophilic compound.

The nature of data set [1]: method code SF-CR+DM, from DOI: 10.1021/ja01573a017. Conditions: pH 6.5.
A short description of data set [2]: method code SF-AS, from DOI: 10.1021/jm00297a026, PMID: 5441130.
Experiment in data set [3]: not given
The source holds these as a separate data set.

Data set [4] in a line: method code SF-AS, from DOI: 10.1021/es00012a023, PMID: 22148214.
Experiment in data set [5]: not given
This is another data set of the same source.

Experiment in data set [6]: not given
The source holds these as a separate data set.

Experiment in data set [7]: not given
This is another data set of the same source.

Data set [8] in a line: method code SF, from DOI: 10.3109/00498258709043934, PMID: 3564538.
Data set [9] in a line: method code SF, from DOI: 10.1016/0223-5234(94)90060-4. Conditions: pH 7.4.
Experiment in data set [10]: not given
This is another data set of the same source.

Data set [11] is described as follows: method code SF-GLC, from DOI: 10.1016/j.chemosphere.2004.08.061, PMID: 15519382.
A short description of data set [12]: method code SF-AS, from DOI: 10.1021/acs.inorgchem.5b01238, PMID: 26280387.
A short description of data set [13]: method code SF-HPLC, from DOI: 10.1002/jps.10072, PMID: 11920751. Conditions: pH 7.4.
A short description of data set [14]: method code SF-HPLC, from DOI: 10.1007/s00216-006-0868-5, PMID: 17082876.
Data set [15] can be described thus: method code SF-RC, from DOI: 10.1023/a:1015892313856, PMID: 1495896.
Data set [16] is described as follows: method code SF-AS, from DOI: 10.1002/jps.2600611027, PMID: 5072421.
A short description of data set [17]: method code SF-HPLC, from DOI: 10.1248/cpb.41.694.
Data set [18] in a line: method code SF-AS, from DOI: 10.1016/0006-2952(93)90433-w, PMID: 8494536. Conditions: pH 7.4.
Experiment in data set [19]: not given
This is another data set of the same source.

Data set [20] in a line: method code SF-HPLC, from Peips, M.; Sikk, P.; Aaviksaar, A. (1986). Hydrophobic interaction in the active sites of serine proteases from thermoactinomycetes. Org. React., 23(3)261-271. Conditions: pH 2.2.
A short description of data set [21]: method code SF-HPLC, from DOI: 10.1016/0378-5173(86)90071-2. Particulars: pH 7.4.
A short description of data set [22]: method code SF-NMR, from DOI: 10.1021/jm00157a023, PMID: 3806574.
Experiment in data set [23]: not given
This is another data set of the same source.

A short description of data set [24]: method code SF-AS, from DOI: 10.1021/jf60220a002.

Peptide text beside a SMILES is read from it. * marks the point of attachment. NHtBu = CC(C)(C)N*

The molecule `Cc1ccc(NC(=O)c2ccccc2)c(O)c1` showed a logD in [1] of 3.08.
In data set [2], `CCC(O)Cn1cnc2c(N)ncnc21` (stereo not given) gave a logP of 0.14.
For the molecule `CC(C)C(C(=O)O)c1ccc(Cl)cc1` (stereo not given), the logP amounted to 3.38.
As to `S=c1ssc(-c2ccccc2)c1-c1ccccc1`, the logP in [3] was found to be 4.2.
In turn, `CC(C)OC(=O)CS(=O)c1ccc(Cl)cc1[N+](=O)[O-]` (stereo not given) displayed a logP in data set [4] of 2.22.
For the molecule `COCCc1ccc(OCC(O)CNC(C)C)cc1` (stereo not given), the logP in data set [5] amounted to 1.65.
The molecule `CCC(C)C(NC(=O)C(=O)OCC1OC(n2cc(C)c(=O)[nH]c2=O)CC1N=[N+]=[N-])C(=O)O` (stereo not given) returned a logP in [6] of 1.15.
The same measure, in the same setting: then `Cc1cn(C2CC(N=[N+]=[N-])C(COC(=O)C(=O)NC(Cc3ccccc3)C(=O)O)O2)c(=O)[nH]c1=O` (stereo not given), with 1.2.
Take `Brc1c(Br)c(Br)c(Oc2c(Br)c(Br)c(Br)c(Br)c2Br)c(Br)c1Br`: the logP in [7] stood at 9.56.
For `CCOC(=O)C(C(=O)CC)=C1SC=CS1`, the logP in [8] was 2.9.
Consider `CC(C)C(C(=O)O)c1ccc(OC(F)F)cc1` (stereo not given), for which the logP was 3.03.
`CC(C=CC1=C(C)CCCC1(C)C)=CC=CC(C)=CC(=O)Nc1ccn(C2CSC(CO)O2)c(=O)n1` (stereo not given) gave a logD in data set [9] of 1.23.
Turning to `Cc1cc2ccccc2cc1C`, in [10], the logP turned out to be 4.4.
Molecule `Cn1c(Br)c(Br)c(Br)c1-c1c(Br)c(Br)c(Br)n1C` gave a logP in [11] of 6.7.
The molecule `CSC(=S)C=C(O)c1ccc(O)cc1` yielded a logP in [12] of 1.9.
On to `CC(=O)OCC(CO)OCn1cnc2c(=O)[nH]c(N)nc21` (stereo not given), for which, in [13], the logD was -1.08.
On to `CC(C)OC(=O)CS(=O)c1ccc([N+](=O)[O-])cc1` (stereo not given), for which the log partition coefficient (logP) in data set [4] was 1.64.
In the case of `Cc1cccc2ccccc12`, the logP in data set [10] worked out at 3.87.
Regarding `CC(=O)CC(=O)Nc1ccccc1`, the logP in data set [14] was 1.04.
As for `CC(=O)NC(C)C(=O)NC(CCC(N)=O)C(=O)NC(C)C(=O)NC(C)(C)C` (stereo not drawn) (Ac-Ala-Gln-Ala-NHtBu; configuration not given here), the logD in data set [15] (pH 2.0) is -0.67.
Take `CC12CCC(c3c1ssc3=S)C2(C)C` (stereo not given): in [3], the logP turned out to be 3.7.
Consider `CCCCCCc1ccncc1`, for which the logP in data set [16] came out at 4.35.
In data set [17], `CN(C)C(=O)OCc1ccc(C(N)=O)cc1` showed a logP of 0.77.
As to `Cn1c(Cl)c(Cl)c(Br)c1-c1c(Br)c(Br)c(Cl)n1C`, the logP in data set [11] amounted to 6.5.
Turning to `CCCCCCCc1ccncc1`, the logP in [16] was 5.
Molecule `CS(=O)(=O)c1cccc2ccccc12` returned a logD in data set [18] of 1.74.
In [14], `O=S1(=O)OC(c2cc(Br)c(O)c(Br)c2)(c2cc(Br)c(O)c(Br)c2)c2ccccc21` returned a logP of 4.88.
`CC(C)(C)NCC(O)COc1cccc2c1C[C@H](O)[C@H](O)C2` (stereo not given in full) showed a logP in data set [5] of 1.27.
In data set [19], `CC(=O)OCC1OC(n2ccc(N)nc2=O)C(O)C1O` (stereo not given) yielded a logP of -1.25.
Consider `Cc1cn([C@H]2C[C@H](O)[C@@H](CO)O2)c(=O)[nH]c1=O`, for which the logP in data set [6] is -1.04.
The molecule `CCCCC(NC(C)=O)C(=O)OC` (racemic) yielded a logD in data set [20] of 0.79.
For `COC(=O)[C@H](Cc1ccccc1)NC(C)=O`, the logD in data set [20] was 0.92.
The molecule `CC(=O)OCC1OC(n2ccc(N)nc2=O)CS1` (stereo not given) came in with a logD in data set [9] of 0.51.
As for `CC(=O)N[C@@H](C)C(=O)NCC(=O)NC(C)(C)C`, the pH-dependent lipophilicity (logD) in data set [15] (pH 7.2) was -0.6.
As for `CCCC(=O)OCOc1ccccc1C(N)=O`, the logD in data set [21] amounted to 1.66.
The molecule `CC(C)OC(=O)CSc1ccccc1[N+](=O)[O-]` returned a lipophilicity (logP) in data set [4] of 2.76.
Turning to `CCSC(=S)C=C(O)c1cccc(O)c1`, the logP in [12] was determined as 1.73.
On to `CS(=O)CCCOc1ccc2ccccc2c1` (stereo not given), for which the logD in data set [18] came out at 2.42.
In data set [17], `CSc1ccc(COC(=O)N(C)C)cc1` came in with a logP of 2.86.
In turn, `CCCCC(CO)n1cnc2c(N)ncnc21` (stereo not given) showed a logP in data set [2] of 1.16.
For the molecule `Brc1cc(Br)c(-c2cc(Br)ccc2Br)c(Br)c1`, the logP in data set [7] was 6.89.
In data set [11], `Cn1c(Cl)c(Br)c(Br)c1-c1c(Br)c(Br)c(Br)n1C` returned a log partition coefficient (logP) of 6.6.
Take `S=c1ssc2c1CCCCCCCCCCCCC2`: the logP in data set [3] turned out to be 7.18.
Turning to `Cc1ccc2cc3ccccc3cc2c1`, the logD in data set [18] was found to be 5.
`O=P(N1CCOCCOCCOCCOCC1)(N1CC1)N1CC1`: in data set [22], the logP was 0.12.
Molecule `CCCCCCCCC1(c2ccncc2)CCC(=O)NC1=O` (stereo not given) had a logP in data set [23] of 4.04.
As to `CCCOC(=O)C(C(=O)OCCC)=C1SC=CS1`, the logP in [8] stood at 3.93.
In [12], `CSC(=S)C=C(O)c1cccc(O)c1` came in with a logP of 1.71.
For `CC1(c2ccncc2)CCC(=O)NC1=O` (stereo not given), the logP in [23] was found to be 0.07.
For `CCc1ccc2ccccc2c1`, in data set [10], the logP was found to be 4.38.
In data set [20], `CCCCCC(NC(C)=O)C(=O)OC` (stereo not given) yielded a log distribution coefficient (logD) of 1.28.
In the case of `Cc1ccc(NC(=O)c2ccco2)c(O)c1`, the logD in data set [1] turned out to be 2.84.
Molecule `CCCCC(=O)OCC(CO)OCn1cnc2c(=O)[nH]c(N)nc21` (stereo not given) displayed a logD in data set [13] of -0.07.
For the molecule `Oc1ccc(Cl)c2ccccc12`, the logD in data set [1] came out at 4.1.
In data set [23], `CCCCCCC1(c2ccncc2)CCC(=O)NC1=O` (stereo not given) registered a logP of 2.85.
As for `CCC(=O)OCC(CO)OCn1cnc2c(=O)[nH]c(N)nc21` (stereo not given), the logD in data set [13] is -0.92.
Regarding `N=C(Nc1ccccc1)Nc1ccccc1`, in [14], the logP was 2.85.
On to `CC(=O)NC(C)C(=O)NC(CC(=O)O)C(=O)NC(C)(C)C` (stereo not drawn) (Ac-Ala-Asp-NHtBu; configuration not given here), for which the logD in [15] (pH 2.0) is -0.74.
In turn, `CCOCCOCCOP(=O)(N1CC1)N1CC1` came in with a logP in [22] of 0.1.
`CN(C)C(=O)OCc1cccc([N+](=O)[O-])c1` displayed a log partition coefficient (logP) in [17] of 1.98.
In [16], `CCCCCc1ccncc1` gave a logP of 3.75.
The molecule `Brc1ccc(-c2cc(Br)ccc2Br)c(Br)c1` returned a logP in data set [7] of 6.49.
The molecule `CCNP(=O)(OCC)O/N=C(/C#N)c1ccc(OC)cc1` (stereo not given) yielded a logP in data set [24] of 2.39.
In data set [2], `CCCCCn1cnc2c(N)ncnc21` had a log partition coefficient (logP) of 1.79.
Turning to `CC(C=CC1=C(C)CCCC1(C)C)=CC=CC(C)=CC(=O)OCC1OC(n2ccc(N)nc2=O)CS1` (stereo not given), the logD in [9] is 1.24.
In the case of `CC(C)OC(=O)C(C(=O)OC(C)C)=C1SC=CS1`, the logP in data set [8] is 3.75.
As for `CC(C)(C)C(=O)OCOc1ccccc1C(N)=O`, the log distribution coefficient (logD) in data set [21] stood at 2.
Molecule `COc1ccc(C(C(=O)O)C(C)C)cc1` (stereo not given) registered a logP of 2.5.
As to `CC(=O)OCOc1ccccc1C(N)=O`, the logD in [21] came to 0.52.
In data set [24], `CCOP(=O)(NC)O/N=C(/C#N)c1ccc(Cl)cc1` (stereo not given) registered a logP of 2.5.
In turn, `CCOCCOCCOP(=O)(N1CC1(C)C)N1CC1(C)C` (stereo not given) returned a logP in [22] of 0.22.
On to `CCNP(=O)(OCC)ON=C(C#N)c1ccc([N+](=O)[O-])cc1` (stereo not given), for which, in data set [24], the logP was 1.76.
For `CC(=O)C=Cc1ccccc1`, the log partition coefficient (logP) in [5] was determined as 2.13.
Molecule `CC(=O)OC[C@H]1O[C@@H](n2cc(C)c(=O)[nH]c2=O)C[C@@H]1N=[N+]=[N-]` displayed a logP in [19] of 0.45.
For the molecule `Cc1cn(C2CC(N=[N+]=[N-])C(COC(=O)c3ccncc3)O2)c(=O)[nH]c1=O` (stereo not given), in data set [19], the log partition coefficient (logP) turned out to be 0.8.
